Measured values reported in patent US7718715B2, “pH-modified latex comprising a synergistic combination of biocides” (S.C. Johnson & Son, Inc., priority 2004, dated 2010).

What was measured:
[1] = test system: Escherichia coli #11229, Pseudomonas aeruginosa #15442; test: Challenge Test (Antimicrobial Effectiveness Test), bacterial inoculum (1:1 mixture); format: cell-based, E. coli & P. aeruginosa; settings: stabilized acrylic latex A, DN 22%
Experimental: The following cultures were obtained from American Type Culture Collection (ATCC) at 10801 University Boulevard, Manassas, Va. 20110-2209: Escherichia coli #11229, Pseudomonas aeruginosa #15442, Candida albicans #10231, Aspergillus niger #6275. The bacterial inoculum was 0.10 ml of a 1:1 mixture of the 24-hr±4 hr culture of E. coli and P. aeruginosa in 25 grams of sample to give approximately 4×10^6 CFU/g. Both E. coli culture and the P. aeruginosa culture were grown in Nutrient Broth (Difco Laboratories, Detroit, Mich.) at 35° C. Each of the 25-g samples were inoculated or challenged with 0.10 ml of the bacterial inoculum, the yeast inoculum, and the mold inoculum respectively on day-0 and day-14. All samples were stored at ambient temperature. Each sample (10 microliter) was streaked on appropriate agar plates (bacteria on Tryptic Soy Agar (Difco Laboratories, Detroit, Mich.) plates with neutralizer and yeast/mold on Potato Dextrose Agar (Difco Laboratories, Detroit, Mich.) plates with neutralizer) on day-1, day-2, day-3, day-7, day-14, day-15, day-16, day-17, day-21, and day-28 to test for survivors. Streaked plates were incubated at appropriate temperature and time (48-hr at 35±2° C. for bacteria and 72-hr at 28±2° C. for yeast/mold). On day-14, each sample was re-inoculated with appropriate inoculum after streaking on agar plates. Plates were read after incubation time. Recovery of surviving organisms at 14 days was a failing result for the challenge test. Biocides were always added after the reaction has been completed and after the batch has been cooled to <50° C. The desired temperature was dependent on the specific biocide. Many biocides become deactivated if exposed to high temperatures for an extended time. Each biocide was diluted with about 5× its weight with DI water and slowly added to the batch with good agitation. The dilution is to prevent the biocide from shocking the latex. The batch was mixed for a minimum of 20 minutes after the biocide was added to ensure good incorporation. If any temporary destabilization to the latex had occurred, it had time to recover prior to filtration. The Challenge Test is a qualitative laboratory procedure used to differentiate poorly and marginally preserved products from well-preserved products. Products are intentionally inoculated with test organisms and then evaluated by use of streak plating technique to determine if microbial reduction has been attained.

Aspergillus niger #6275 = test: Challenge Test (Antimicrobial Effectiveness Test), mold inoculum; format: cell-based; design: key to Challenge Test result: Mold A. niger: Fail: Recovery of surviving organisms at 14 days was a failing result for the challenge test; settings: for Challenge Test result: Mold A. niger: stabilized acrylic latex A, DN 22%
Experimental: The following cultures were obtained from American Type Culture Collection (ATCC) at 10801 University Boulevard, Manassas, Va. 20110-2209: Escherichia coli #11229, Pseudomonas aeruginosa #15442, Candida albicans #10231, Aspergillus niger #6275. The mold inoculum was 0.10 ml of A. niger culture specimen in 25 grams of sample to give approximately 2×10^5 CFU/g. The culture specimen was obtained from 7-day-old A. niger culture grown on Sabouraud Dextrose Agar (Difco Laboratories, Detroit, Mich.) with 0.2% Triton X-100 in 0.85% saline. Each of the 25-g samples were inoculated or challenged with 0.10 ml of the bacterial inoculum, the yeast inoculum, and the mold inoculum respectively on day-0 and day-14. All samples were stored at ambient temperature. Each sample (10 microliter) was streaked on appropriate agar plates (bacteria on Tryptic Soy Agar (Difco Laboratories, Detroit, Mich.) plates with neutralizer and yeast/mold on Potato Dextrose Agar (Difco Laboratories, Detroit, Mich.) plates with neutralizer) on day-1, day-2, day-3, day-7, day-14, day-15, day-16, day-17, day-21, and day-28 to test for survivors. Streaked plates were incubated at appropriate temperature and time (48-hr at 35±2° C. for bacteria and 72-hr at 28±2° C. for yeast/mold). On day-14, each sample was re-inoculated with appropriate inoculum after streaking on agar plates. Plates were read after incubation time. Recovery of surviving organisms at 14 days was a failing result for the challenge test. Biocides were always added after the reaction has been completed and after the batch has been cooled to <50° C. The desired temperature was dependent on the specific biocide. Many biocides become deactivated if exposed to high temperatures for an extended time. Each biocide was diluted with about 5× its weight with DI water and slowly added to the batch with good agitation. The dilution is to prevent the biocide from shocking the latex. The batch was mixed for a minimum of 20 minutes after the biocide was added to ensure good incorporation. If any temporary destabilization to the latex had occurred, it had time to recover prior to filtration. The Challenge Test is a qualitative laboratory procedure used to differentiate poorly and marginally preserved products from well-preserved products. Products are intentionally inoculated with test organisms and then evaluated by use of streak plating technique to determine if microbial reduction has been attained.

[2] = 0.10% Bioban CS-1135, 0.00% Bronopol, pH 6.68
[3] = 0.20% Bioban CS-1135, 0.00% Bronopol, pH 6.69
[4] = 0.80% Bioban CS-1135, 0.00% Bronopol, pH 6.62
[5] = 1.20% Bioban CS-1135, 0.00% Bronopol, pH 6.64
[6] = 2.00% Bioban CS-1135, 0.00% Bronopol, pH 6.82
[7] = 0.10% Bronopol (30% active), 0.00% Bioban CS-1135, pH 6.64, Table 1
[8] = 0.10% Bronopol (30% active), 0.00% Dowicil 75, pH 6.64, Table 3
[9] = 0.20% Bronopol (30% active), 0.00% Bioban CS-1135, pH 6.65, Table 1
[10] = 0.20% Bronopol (30% active), 0.00% Dowicil 75, pH 6.65, Table 3
[11] = 0.50% Bronopol (30% active), 0.00% Bioban CS-1135, pH 6.58, Table 1
[12] = 0.50% Bronopol (30% active), 0.00% Dowicil 75, pH 6.58, Table 3
[13] = 0.80% Bronopol (30% active), 0.00% Bioban CS-1135, pH 6.57, Table 1
[14] = 0.80% Bronopol (30% active), 0.00% Dowicil 75, pH 6.57, Table 3
[15] = 1.20% Bronopol (30% active), 0.00% Bioban CS-1135, pH 6.57, Table 1
[16] = 1.20% Bronopol (30% active), 0.00% Dowicil 75, pH 6.57, Table 3

CC1(C)COCN1 [Bioban CS-1135, 4,4-dimethyl-oxazolidine]
Challenge Test result: Bacteria E. coli & P. aeruginosa [1, 2]: Pass | Challenge Test result: Bacteria E. coli & P. aeruginosa [1, 3]: Pass | Challenge Test result: Bacteria E. coli & P. aeruginosa [1, 4]: Pass | Challenge Test result: Bacteria E. coli & P. aeruginosa [1, 5]: Pass | Challenge Test result: Bacteria E. coli & P. aeruginosa [1, 6]: Pass | Challenge Test result: Mold A. niger (Aspergillus niger #6275; [2]): Fail | Challenge Test result: Mold A. niger (Aspergillus niger #6275; [3]): Pass | Challenge Test result: Mold A. niger (Aspergillus niger #6275; [4]): Pass | Challenge Test result: Mold A. niger (Aspergillus niger #6275; [5]): Pass | Challenge Test result: Mold A. niger (Aspergillus niger #6275; [6]): Pass

O=[N+]([O-])C(Br)(CO)CO [Bronopol, 2-bromo-2-nitro-1,3-propanediol]
Challenge Test result: Bacteria E. coli & P. aeruginosa [1, 7]: Pass | Challenge Test result: Bacteria E. coli & P. aeruginosa [1, 8]: Pass | Challenge Test result: Bacteria E. coli & P. aeruginosa [1, 9]: Pass | Challenge Test result: Bacteria E. coli & P. aeruginosa [1, 10]: Pass | Challenge Test result: Bacteria E. coli & P. aeruginosa [1, 11]: Pass | Challenge Test result: Bacteria E. coli & P. aeruginosa [1, 12]: Pass | Challenge Test result: Bacteria E. coli & P. aeruginosa [1, 13]: Pass | Challenge Test result: Bacteria E. coli & P. aeruginosa [1, 14]: Pass | Challenge Test result: Bacteria E. coli & P. aeruginosa [1, 15]: Pass | Challenge Test result: Bacteria E. coli & P. aeruginosa [1, 16]: Pass | Challenge Test result: Mold A. niger (Aspergillus niger #6275; [7]): Fail | Challenge Test result: Mold A. niger (Aspergillus niger #6275; [8]): Fail | killing of the mold (A. niger) (Aspergillus niger #6275; 0.2% BRONOPOL, acrylic latex A): failed to kill | Challenge Test result: Mold A. niger (Aspergillus niger #6275; [9]): Fail | Challenge Test result: Mold A. niger (Aspergillus niger #6275; [10]): Fail | Challenge Test result: Mold A. niger (Aspergillus niger #6275; [11]): Pass | Challenge Test result: Mold A. niger (Aspergillus niger #6275; [12]): Pass | Challenge Test result: Mold A. niger (Aspergillus niger #6275; [13]): Pass | Challenge Test result: Mold A. niger (Aspergillus niger #6275; [14]): Pass | Challenge Test result: Mold A. niger (Aspergillus niger #6275; [15]): Pass | Challenge Test result: Mold A. niger (Aspergillus niger #6275; [16]): Pass | control of the growth of Aspergillus niger (Aspergillus niger #6275; maximum allowable level, test stabilized acrylic latex): failed to control
